Literature values in article PMC4894406, “Results of an abbreviated phase-II study with the Akt Inhibitor MK-2206 in Patients with Advanced Biliary Cancer” (Scientific Reports, 2015).

System: cholangiocarcinoma cell lines
Settings: pre-clinical data; cited from earlier work

Compound	effect on CXCL12-induced cholangiocarcinoma cell invasion
O=c1cc(N2CCOCC2)oc2c(-c3ccccc3)cccc12 [LY294002]	attenuated
N#CC(=C(/N)Sc1ccccc1N)/C(C#N)=C(/N)Sc1ccccc1N [UO126]	attenuated
